Laboratory results: ChEMBL document CHEMBL4382281, “ASK1: A Therapeutic Target for the Treatment of Multiple Diseases” (ACS Med Chem Lett, 2019)

Experiments:
[1] = target: T1, Mitogen-activated protein kinase kinase kinase 5 (Homo sapiens, UniProt Q99683); experiment: Inhibition of full-length human GST-tagged ASK1 expressed in baculovirus expression system using biotinylated STK Substrate 3 preincubated for 10 mins followed by ATP addition and measured after 5 hrs by TR-FRET assay
T1 sequence (Q99683 whole entry): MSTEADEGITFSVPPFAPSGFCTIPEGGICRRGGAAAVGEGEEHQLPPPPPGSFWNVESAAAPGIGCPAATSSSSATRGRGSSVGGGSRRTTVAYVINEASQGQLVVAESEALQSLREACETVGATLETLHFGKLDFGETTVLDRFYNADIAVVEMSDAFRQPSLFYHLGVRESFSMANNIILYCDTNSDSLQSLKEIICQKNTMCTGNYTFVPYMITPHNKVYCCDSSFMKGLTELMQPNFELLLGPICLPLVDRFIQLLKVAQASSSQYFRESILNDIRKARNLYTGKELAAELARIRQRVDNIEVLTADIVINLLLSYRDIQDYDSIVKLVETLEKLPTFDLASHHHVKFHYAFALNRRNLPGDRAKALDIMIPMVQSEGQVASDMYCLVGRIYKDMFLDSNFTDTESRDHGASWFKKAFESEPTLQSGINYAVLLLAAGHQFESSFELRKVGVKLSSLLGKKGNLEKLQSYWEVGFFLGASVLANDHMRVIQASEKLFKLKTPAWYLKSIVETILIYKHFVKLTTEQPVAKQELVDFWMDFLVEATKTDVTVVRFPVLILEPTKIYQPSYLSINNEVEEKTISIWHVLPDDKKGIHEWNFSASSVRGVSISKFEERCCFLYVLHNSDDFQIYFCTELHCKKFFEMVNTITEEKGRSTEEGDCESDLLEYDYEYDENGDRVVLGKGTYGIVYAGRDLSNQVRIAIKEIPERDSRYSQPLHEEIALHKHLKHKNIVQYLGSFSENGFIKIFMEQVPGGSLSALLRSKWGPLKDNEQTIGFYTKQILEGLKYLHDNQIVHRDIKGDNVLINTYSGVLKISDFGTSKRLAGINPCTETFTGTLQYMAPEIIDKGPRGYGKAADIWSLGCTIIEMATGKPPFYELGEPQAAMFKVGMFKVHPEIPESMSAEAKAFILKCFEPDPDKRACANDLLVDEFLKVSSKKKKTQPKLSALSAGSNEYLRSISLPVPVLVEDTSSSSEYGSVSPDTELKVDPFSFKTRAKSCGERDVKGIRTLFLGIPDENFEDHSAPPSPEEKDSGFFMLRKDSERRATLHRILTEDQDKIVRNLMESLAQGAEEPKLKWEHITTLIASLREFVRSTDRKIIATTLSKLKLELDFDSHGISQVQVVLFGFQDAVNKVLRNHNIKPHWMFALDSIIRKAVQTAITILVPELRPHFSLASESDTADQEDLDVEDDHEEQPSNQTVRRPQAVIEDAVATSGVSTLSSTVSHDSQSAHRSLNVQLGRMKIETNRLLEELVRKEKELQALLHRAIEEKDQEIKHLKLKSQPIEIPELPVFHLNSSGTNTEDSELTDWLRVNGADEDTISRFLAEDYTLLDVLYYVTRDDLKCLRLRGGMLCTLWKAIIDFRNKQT

[2] = target: T1, Mitogen-activated protein kinase kinase kinase 5; experiment: Inhibition of human ASK1 using MBP as substrate measured in presence of [gamma-33P]-ATP
[3] = target: T1, Mitogen-activated protein kinase kinase kinase 5; experiment: Inhibition of recombinant V5-tagged ASK1 (unknown origin) expressed in HEK293 cells assessed as reduction in ASK1 autophosphorylation at T838 residue after 1 hr by MSD assay; assay type: cell-based

SMILES | IC50 [1] [nM] | IC50 [2] [nM] | IC50 [3] [nM]
Cc1ccc2c(c1)C(=O)Nc1cccc(n1)-c1nncn1CCCCO2 | ≤ 100 | ≤ 100 | ≤ 1000
O=C1Nc2cccc(n2)-c2nncn2C/C=C/COc2c(Br)cccc21 | 100 to 1000 | – | > 10000
Cc1ncn(-c2ccc3c(c2)C(=O)Nc2cccc(n2)-c2nncn2CCCCO3)c1C | ≤ 100 | ≤ 100 | ≤ 1000
